Results reported in patent US4696920A, “Certain 2-substituted 1,3-propylidenediphosphonate derivatives, pharmaceutical compositions containing them and their use as antihypertensive agents” (priority 1984, dated 1987).
Entries after “also recorded” stand apart in the source; their conditions may differ.

Key:
[1] = test system: mean blood pressure in rat; assay: Acute intravenous hypotensive activity in anesthetized rats; type: in vivo, rat (male Wistar); settings: Rattus norvegicus, iv, read-out: Decrease in mean blood pressure (% pretest)
Protocol: Male Wistar rats were anesthetized with Pentobarbital (Nembutal, 60 mg/kg i.p.) and heparinized (5 mg/kg i.p.). After tracheotomy the right carotid was cannulated (catheter PE 50); blood pressure was measured with a pressure transducer (Statham P 23 db) and recorded on a polygraph (Beckman).
Animals received 0.5 and 1.5 mg/kg of the test compounds. Less than 100 μl of test compounds dissolved in 0.9% saline were injected in the jugular vein. Highly water insoluble compounds were suspended in 2% Tween-80. Injection of the vehicle alone had no detectable hypotensive effect.
Results presented are expressed as percent decrease in initial mean blood pressure (Mean±SEM).

[2] = test system: calcium channel binding site for [^3 H]-Nitrendipine (rat brain membranes); assay: [^3 H]-Nitrendipine binding to rat brain membranes; design: species or system rat (male Wistar); settings: for modulation of [^3 H]-Nitrendipine binding (in words) / Specifically bound [^3 H]-Nitrendipine % of control value / Bound ^3 H at 1.0 μM / Bound ^3 H at 0.1 μM: Table 1a; for Specifically bound [^3 H]-Nitrendipine % of control value: compound concentration 1.0 μM; for Bound ^3 H at 1.0 μM / Bound ^3 H at 0.1 μM: ratio of [^3 H]-Nitrendipine bound at 1.0 and 0.1 μM compound
Protocol: (§1) Diltiazem hydrochloride was a generous gift from Goedecke A. G.
Suitable dilutions were made in 50 mM Tris-HCl buffer (pH 7.4) containing 150 mM NaCl and 1 mM CaCl2. The ethanol concentration in the final assay never exceeded 0.1%.
(§2) The purity of the radioligand and of the various agents tested was monitored by thin layer chromatography on silica gel plates.
(§3) The following procedure was adapted from Bellemann et al (Proc. Nat. Acad. Sci. 80, 2356, 1983), and Gould et al (Proc. Nat. Acad. Sci. 79, 3656, 1982).
(§4) Adult male Wistar rats weighing 250-300 g were anesthetized with carbon dioxide prior to decapitation. The brain was removed then immersed in ice-cold 0.32M sucrose and washed 2-3 times with fresh solution. Cerebral cortex was minced and homogenized (Potter-Elvehjem homogenizer) in 10 volumes of ice-cold sucrose solution. The homogenate was centrifuged (4° C.) at 1000×g for 15 minutes. The resulting supernatant was then centrifuged at 90000×g (30 minutes) and the pellet was washed twice with 20 ml ice-cold 50 mM Tris-HCl pH 7.4.
(§5) The final pellet was resuspended in 50 mM Tris-HCl pH 7.4/150 mM NaCl/1 mM CaCl2 to give a protein concentration of 4 mg/ml.
(§6) The membrane suspension was kept on ice until used. Binding assays were performed in subdued light to prevent dihydropyridine breakdown. Membrane protein (400 μg/tube) was incubated in 50 mM Tris-HCl buffer (pH 7.4)/150 mM NaCl/1 mM CaCl2 with the indicated concentrations of radioligand and test compounds or known calcium antagonists, in a total volume of 2 ml. After the indicated time intervals, the reaction was terminated by rapid filtration through Whatman GF/B glass fiber filters (2.4 cm diameter) on a Millipore filter holder. The assay tube was rinsed with 2 ml ice-cold 50 mM Tris-HCl pH (7.4) and the precipitate was further washed with 2×5 ml of the same buffer.
(§7) Filters were dried under a heat lamp and were extracted with 10 ml of liquid scintillation cocktail (Toluene/Triton X-100, 2/1 containing 4 g Omnifluor/1) prior to tritium determination at 48% counting efficiency.
(§8) Assays were performed in duplicate or triplicate.
(§9) Data were expressed as percent specific [^3 H]-Nitrendipine binding relative to the established control value.
(§10) Compound activity in the [^3 H]-Nitrendipine binding assay was evaluated by using the following criteria:
(§11) 1. [^3 H]-Nitrendipine binding at 1.0 μM compound final concentration was either below 95% or above 105% of the control value determined in absence of compound.
2. […] This ratio is indicative of a dose response relationship within the compound concentration range tested, when the value differs appreciably from 1.0.

[3] = test system: isolated rat atrium (atrium rate); assay: Chronotropic activity in isolated rat atrium; design: species or system rat (male SHR, Okamoto-Aoki); settings: 5.0 × 10^-6 M, mean ± SEM, read-out: Decrease in atrium rate (% pretest)
Protocol: Spontaneously hypertensive male rats (SHR) (Okamoto-Aoki strain) were anesthetized with Pentobarbital (Nembutal Abbott, 60 mg/kg, i.p.). The hearts were quickly excised and both atria were dissected free from adjacent cardiac tissues. The atria were immediatly placed in a 50 ml Krebs-Ringer bath with the following composition (mM): NaCl, (120.0); KCl, (5.63); CaCl2, (2.0); MgCl2, (2.10); NaHCO3, (25.0); Glucose, (9.7) (pH 7.4). The solution was continuously bubbled with a O2 /CO2 mixture (95/5) and maintained at 37±1° C. The atrium was fixed to an optical displacement transducer (IITC, USA) under a resting tension of 1 g in order to measure atrial rate. The preparation was allowed to equilibrate for 40 min then cumulative dose-response curves were determined for each test compound (0.5-5 μMole/l). Maximum effect was normally obtained within 30-40 min. for each concentration.
Stock solutions of the 1,3-diphosphonates were generally prepared in 0.9% saline and water insoluble compounds were prepared in 50% ethanol. […] When tested at the concentration of 5.0×10^-6 M a decrease in atrium rate of more than 5% was considered as significant.
All data are presented as % decrease of initial atrium rate (mean values±SEM). A potent negative chronotropic effect was found with all compounds tested (table 3).

[4] = test system: rat trachea contraction induced by KCl depolarization; assay: KCl-induced rat trachea contraction; design: species or system rat (male SHR, Okamoto-Aoki); settings: for activity at 1 µM: Rattus norvegicus, 40 min, read-out: Contraction (% max.); for activity on KCl-induced trachea contraction (in words): final concentration 1.0 μM
Protocol: Spontaneously hypertensive male rats (SHR) Okamoto-Aoki Strain, weighing 300-400 g were used in this study. They were killed by bleeding after Pentobarbital anesthesia (Nembutal, Abbott Co, 40 mg/kg). Their entire trachea was quickly removed and dissected free of fat and connective tissue in Krebs-Ringer solution. A strip (4 mm×40 mm), obtained by spirally cutting the trachea, was immediately suspended in a 50 ml Krebs-Ringer solution and continuously bubbled with a O2 /CO2 (95/5) mixture. Bath temperature was maintained at 37±1° C. The composition (mM) of the Krebs-Ringer solution modified by Nghiem, was as follows: NaCl, (118.0); KCl, (4.7); CaCl2, (2.5); MgCl2, (1.18); NaHCO3, (12.5); KH2 P04, (1.18); glucose, (5.5) in bidistilled water (pH 7.4). Each strip was equilibrated under initial tension (1.5-2 g) for 1-2 hours and the bath solution changed every 30 min. A contractile or relaxant response was isometrically measured with a force-displacement transducer (Ugo-Basile) and recorded on a polygraph (Beckman).
After equilibration, KCl was added to the bath at 65 mM final concentration. This concentration produced maximum trachea contraction. Under these conditions, a plateau phase showing a tonic sustained contraction was reached within 30 minutes. Drugs were added 30 minutes after the plateau phase has been reached (final concentration=1.0 μM). […] Recordings of the residual trachea contraction were made 40 minutes after drug addition to the bathing fluid. The initial KCl induced contraction was taken as the maximum KCl response (100%). Results were expressed as % of maximal contraction. Nifedipine, Prenylamine, Flunarizine and Diltiazem were used as reference standards to validate this assay.
All 1,3-diphosphonates and drugs were dissolved in saline (0.9% NaCl) except when water insoluble, then the compounds were dissolved in 2% ethanol. The final concentration of ethanol used has been shown not to interfere with the assay.
Results are expressed as mean values±SEM, the Student's t-test was used for statistical analysis.

[5] = test system: [^3 H]-PN-200 110 (dihydropyridine) binding site of calcium channel, rat brain membranes; assay: [^3 H]-PN-200 110 binding to rat brain membranes; design: species or system rat (male Wistar); settings: for Specifically bound [^3 H]-PN-200 110 % of control value: compound concentration 1.0 μM; for Specifically bound [^3 H]-PN-200 110 % of control value / Bound ^3 H at 1.0 μM / Bound ^3 H at 0.1 μM: Table 1b; for Bound ^3 H at 1.0 μM / Bound ^3 H at 0.1 μM: ratio of [^3 H]-PN-200 110 bound at 1.0 and 0.1 μM compound; for potency in [^3 H]-PN200 110 binding (in words): text on Table 1b
Protocol: as §1
Water insoluble compounds were dissolved in absolute ethanol to give 10 mM or 2.5 mM stock solutions. Suitable dilutions were made in 50 mM Tris-HCl buffer (pH 7.4) containing 150 mM NaCl and 1 mM CaCl2. The ethanol concentration in the final assay never exceeded 0.1%.
as §2, §3, §4, §5, §6, §7, §8, §9, §10, §11
2. The ratio obtained by dividing the amount of specifically found [^3 H]-Nitrendipine at 1.0 μM compound final concentration by the value obtained at 0.1 μM test compound, was smaller than 0.9 or greater than 1.1. This ratio is indicative of a dose response relationship within the compound concentration range tested, when the value differs appreciably from 1.0.
Note: In some experiments [^3 H]-PN200 110, a new and commercially available specific dihydropyridine was used instead of [^3 H]-Nitrendipine.

[6] = test system: blood pressure in hypertensive rats; assay: Oral hypotensive activity in hypertensive rats (tail cuff); type: in vivo, rat (spontaneously hypertensive, SHR); settings: Table 5
Protocol: Some selected compounds were given orally to conscious SHR rats and blood pressure was monitored using the tail cuff method. A marked and sustained hypotensive activity was measured in all treated rats. Results are given 2 hours post dose (Table 5). These studies illustrate the obvious potential use of orally administered 1,3-diphosphonates for the clinical treatment of hypertension in man.

[7] = test system: drug receptor sites associated with calcium channels; settings: known calcium antagonists; cited from earlier work

SMILES	Specifically bound [^3 H]-PN-200 110 % of control value [5]	Bound ^3 H at 1.0 μM / Bound ^3 H at 0.1 μM [5]	oral hypotensive activity (in words) [6]	potency in [^3 H]-PN200 110 binding (in words) [5]	effect on [^3 H]-Nitrendipine binding (in words) [7]	other results
CC(C)OP(=O)(CC(Cc1ccccc1)CP(=O)(OC(C)C)OC(C)C)OC(C)C [Compound 55, Tetraisopropyl 2-benzyl-1,3-propylidenephosphonate]						inhibition in vivo at 0.5 mg/kg [1]: 28.2 ± 0.7%; inhibition in vivo at 1.5 mg/kg [1]: 31.1 ± 6.4%; modulation of [^3 H]-Nitrendipine binding (in words) [2]: activators; Specifically bound [^3 H]-Nitrendipine % of control value [2]: 156 % of control value; Bound ^3 H at 1.0 μM / Bound ^3 H at 0.1 μM [2]: 1.292; inhibition at 5 µM [3]: 17.5 ± 4.6%; activity at 1 µM [4]: 73 ± 1%; activity on KCl-induced trachea contraction (in words) [4]: potent pharmacological activity
CCCCOP(=O)(CC(CCOc1ccccc1)CP(=O)(OCCCC)OCCCC)OCCCC [Compound 79, Tetrabutyl 2-(2-phenoxyethyl)-1,3-propylidenediphosphonate]	3 % of control value	0.211	decrease blood pressure as markedly as the marketed calcium antagonists used as references			modulation of [^3 H]-Nitrendipine binding (in words) [2]: strong inhibitors; Specifically bound [^3 H]-Nitrendipine % of control value [2]: 0 % of control value; Bound ^3 H at 1.0 μM / Bound ^3 H at 0.1 μM [2]: 0.000; activity at 1 µM [4]: 60.3 ± 9.6%; activity on KCl-induced trachea contraction (in words) [4]: potent pharmacological activity
CCCCOP(=O)(CC(CCOc1ccc(F)cc1)CP(=O)(OCCCC)OCCCC)OCCCC [Compound 89]	6 % of control value	0.310	decrease blood pressure as markedly as the marketed calcium antagonists used as references	as potent as Nifedipine		
CCCCOP(=O)(CC(CCOc1ccc(Cl)cc1)CP(=O)(OCCCC)OCCCC)OCCCC [Compound 90]	4 % of control value	0.243	decrease blood pressure as markedly as the marketed calcium antagonists used as references	as potent as Nifedipine		
CCCCOP(=O)(CC(CCOc1ccc(Br)cc1)CP(=O)(OCCCC)OCCCC)OCCCC [Compound 91]	15 % of control value	0.420	decrease blood pressure as markedly as the marketed calcium antagonists used as references			
CCCCOP(=O)(CC(CCOc1ccc(OC)cc1)CP(=O)(OCCCC)OCCCC)OCCCC [Compound 92]	0 % of control value	0.000	decrease blood pressure as markedly as the marketed calcium antagonists used as references	as potent as Nifedipine		
CCCCOP(=O)(CC(CCOc1cccc(C(F)(F)F)c1)CP(=O)(OCCCC)OCCCC)OCCCC [Compound 93]	0 % of control value	0.000	decrease blood pressure as markedly as the marketed calcium antagonists used as references	as potent as Nifedipine		
CC(Cc1ccccc1)NCCC(c1ccccc1)c1ccccc1 (stereo not drawn) [Prenylamine, reference compound]					reduce [^3 H]-Nitrendipine binding affinity	% [^3 H]-Nitrendipine bound ([2]; reference standards at 1 μM): 57%
COc1ccc(CCN(C)CCCC2(c3ccc(OC)c(OC)c3)S(=O)(=O)CCCS2(=O)=O)cc1OC [Tiapamil]					reduce [^3 H]-Nitrendipine binding affinity	
COc1ccc(CCN(C)CCCC(C#N)(c2ccc(OC)c(OC)c2)C(C)C)cc1OC (stereo not drawn) [Verapamil]					inhibitors; also recorded: reduce [^3 H]-Nitrendipine binding affinity	
